Like-named read-outs stand apart in the source and are kept apart here.

Results on three compounds are retold here after article PMC7985203, “LLL12B, a small molecule STAT3 inhibitor, induces growth arrest, apoptosis, and enhances cisplatin-mediated cytotoxicity in medulloblastoma cells” (Scientific Reports, 2021).

Series [1] deals with D425 medulloblastoma cells. The series can be described thus: Tumorsphere formation, D425. The class given is cell-based, human. As to conditions: LLL12B 0.5 and 1 μM and/or cisplatin 0.5 and 1 μM, 8 days. On the procedure:
(§1) Cells were seeded (10,000 cells/mL) in ultra-low attachment 6-wells plates and treated with different concentrations of LLL12B and/or cisplatin or DMSO alone for 8 days. One-half of the culture volume of fresh 3D Tumorsphere Medium XF was added every 4 days. Images were captured on a Nikon Eclipse TS100 microscope. Original magnification, × 10.

For series [2], the system named is active caspase-3/7. In words: Apoptosis assay (Caspase-3/7 Fluorescence Assay Kit). The class given is cell-based, human. The conditions noted are these: D425, D283, UW426 cells; LLL12B 1 μM, cisplatin 2.5 μM, 5 h. On the procedure:
Cells were plated in 96-well plates (8000–12,000 cells/well) and allowed to adhere overnight. Cells were treated with LLL12B or DMSO only. After 5 h treatment, active caspase-3/7 were measured using Caspase-3/7 Fluorescence Assay Kit (Cayman, Ann Arbor, MI) according to the manufacture’s instruction. Briefly, cells were centrifuged in the plate (800 g, 5 min) and the culture medium was aspirated, and then 200 µL of assay buffer was added to each well to wash the cells and the supernatant was removed after centrifuge. After that, 100 µL of cell-based assay lysis buffer was added to each well with shaking for 30 min at room temperature. Subsequently, 90 µL of the supernatant from each well was transferred to a corresponding well in a new black 96-well plate and 10 µL of assay buffer was added to appropriate wells. The plate was incubated at 37 °C for 90 min followed by addition of 100 µL of the caspase-3/7 substrate solution. Finally, the fluorescence intensity of each well was read at excitation 485 nm and emission 535 nm. All treatments were performed in triplicate.

The subject of series [3] is P-AKT. In words: Western blot of P-AKT in medulloblastoma cells. The class given is cell-based, human. As to conditions: 4 or 8 h.
Series [4] has as its system IL-6 induced phosphorylation of STAT3. The series can be described thus: IL-6 stimulated P-STAT3 in DaoY cells (Western blot). Format: cell-based, human. The conditions noted are these: 1 and 2.5 μM for 4 h, then IL-6 50 ng/mL 30 min. An excerpt:
(§2) Cells was harvested and extracted using cell lysis buffer (Cell Signaling) supplemented with phosphatase and protease inhibitors. Tumors from mice were grinded in the liquid nitrogen, and extracted proteins using cell lysis buffer supplemented with phosphatase and protease inhibitors. Extracted protein samples were separated by 10% SDS-PAGE and transferred to polyvinylidene difluoride membranes. After blocking with TBS-T buffer containing 5% skim milk (Lab Scientific Inc) at room temperature for 1 h, each membrane was incubated at 4 °C overnight with one of the following primary antibodies at 1:1,000 dilution: rabbit anti-phosphorylated STAT3 (Y705), rabbit anti-STAT3, rabbit anti-phosphorylated STAT1 (Y701), rabbit anti-STAT1, rabbit anti-Cyclin D1, rabbit anti-Survivin, and rabbit anti-GAPDH. Subsequently, each membrane was washed with TBS-T and incubated with horseradish peroxidase-conjugated secondary antibody (1:10,000) at room temperature for 1.5 h. Proteins of interest were visualized using SUPERSIGNAL West Femto Maximum Sensitivity Substrate (Thermo, #34096). Quantification was performed using ImageJ.
(§3) To verify the selective toxicity of LLL12B, DaoY human medulloblastoma cell line was used and treated with LLL12B (1 and 2.5 μM) or DMSO for 4 h followed by induction of IL-6 or INF-γ (50 ng/mL) for 30 min. […]

Series [5] concerns D283 medulloblastoma xenografts. The series can be described thus: D283 tumor xenograft model in nude mice. Format: in vivo. The conditions noted are these: for STAT3 phosphorylation in tumors: Western blot, LLL12B 2.5 mg/kg and/or cisplatin 5 mg/kg. The protocol: (§4) All animal studies were carried out in accordance with the standard procedures approved by the Institutional Animal Care and Use Committee (IACUC) of University of Maryland School of Medicine and University of Florida respectively. Furthermore, our animal studies were performed in compliance with the ARRIVE guidelines. Cells (1 × 10^7 cells/sites) were suspended in PBS mixed with matrigel (1:1, Corning, # 354234) and injected subcutaneously into the flank region of 4 to 5 week-old female athymic nude mice (Envigo). When the volume of the tumors reached approximately 100 mm^3, mice were randomized into four groups: (1) LLL12B (2.5 mg/kg) treated orally once daily only, (2) cisplatin (5 mg/kg) intraperitoneal injection treated once every four days only, (3) combination of LLL12B (2.5 mg/kg) oral once daily and cisplatin (5 mg/kg) intraperitoneal injection once every four days and (4) vehicle only once daily. Tumor growth was determined by measuring the minor (W) and major (L) diameter once every other day with a caliper, and calculated according to the following equation: tumor volume = 0.5236 × L × W^2. Body weight and clinical signs were monitored once every other day. In vivo PK studies in mice were performed by Dr. Chenglong Li’s laboratory at the University of Florida.
Figure 6 LLL12B suppressed tumor growth in medulloblastoma xenografts. (A) Tumor volume, (B) Tumor weights. (C) Tumor samples. (D) Body weights. (E) Western blot of tumor samples. The protein expression levels of P-STAT3(Y705), STAT3, and GAPDH. D283 cells (1 × 10^7 cells/tumor) were harvested and suspended in PBS and then implanted subcutaneously with matrigel (1:1 ratio) into the flank region of 4 to 5 week-old female athymic nude mice. Mice were randomized into three groups (6 mice for each group) and treated with LLL12B (2.5 mg/kg or 5 mg/kg, oral gavage, once daily).
Figure 9 LLL12B and cisplatin combination suppressed tumor growth in D283 medulloblastoma xenografts. (A) Tumor volumes. (B) Tumor weights. (C) Body weight. (D) Western blots to analyze protein expression in the representative tumor samples. Expression levels of p-STAT3(Y705), STAT3, CyclinD1, Survivin, and GAPDH. D283 medulloblastoma cells (1 × 10^7 cells/tumor) were implanted subcutaneously into the flank region of 4 to 5 week-old female athymic nude mice. Mice were randomized into four groups (5 mice for each group) and treated with LLL12B (2.5 mg/kg, oral gavage, once daily) and/or cisplatin (5 mg/kg, intraperitoneal injection, once every 4 days) or vehicle alone.
In general terms: A western blot detects proteins with antibodies after separation by electrophoresis.

Series [6] has as its system D425 medulloblastoma cells. The series can be described thus: Pilot orthotopic tumor model in vivo. More on the design: species or system mice.
The test system of series [7] is D283 medulloblastoma cells. In words: Tumorsphere formation, D283. The conditions noted are these: LLL12B 0.5 and 1 μM and/or cisplatin 0.5 and 1 μM, 8 days. Format: cell-based, human. On the procedure:
as §1

Series [8] has as its system P-ERK. In words: Western blot of P-ERK in medulloblastoma cells. The class given is cell-based, human. As to conditions: 0.5 to 2.5 μM, 4 or 8 h.
Series [9] has as its system D425 medulloblastoma xenografts. In words: D425 tumor xenograft model in nude mice. Format: in vivo. As to conditions: for STAT3 phosphorylation in tumors: Western blot, LLL12B 2.5 mg/kg and/or cisplatin 5 mg/kg. On the procedure:
as §4
Figure 10 Anti-neoplastic activity of LLL12B and cisplatin combined treatment of D425 medulloblastoma xenografts. (A) Tumor volumes. (B) Tumor weights. (C) Body weights. (D) Protein analysis of the representative tumor samples by western blots. Expression levels of p-STAT3 (Y705), STAT3, CyclinD1, Survivin, and GAPDH. D245 medulloblastoma cells (1 × 10^7 cells/tumor) were implanted subcutaneously into the flank region of 4 to 5 week-old female athymic nude mice. Mice were randomized into four groups (5 mice for each group) and treated with LLL12B (2.5 mg/kg, oral gavage, once daily) and/or cisplatin (5 mg/kg, intraperitoneal injection, once every 4 days) or vehicle alone.

The test system of series [10] is D425 medulloblastoma cells. The series can be described thus: MTT cell viability assay, D425. The class given is cell-based, human. As to conditions: 0.5 μM, 48 h, siRNA transfection experiment. The protocol: SignalSilence STAT3 siRNA I was purchased from Cell Signaling (#6580) and medulloblastoma cells were transfected using Lipofectamine 2000 reagent (Invitrogen). The sequence of STAT3 siRNA: GGUCCCUCAUCCUGUUUGU, ACAAACAGGAUGAGGGACC. AMBION SILENCER Negative Control siRNA (#AM4611) was purchased from Invitrogen. Cells were seeded in 96-well plates (8,000 cells/well) and allowed to adhere overnight. siRNA and Lipofectamine 2000 were diluted at 1:50 in Opti-MEM medium respectively. Gently mixed and incubated at room temperature for 5 min, and then the diluted siRNA was added to the diluted Lipofectamine 2000 reagent (1:1 ratio) with an additional incubation of 25 min. The final concentration of siRNA was 100 nM. After that, culture medium was replaced by Lipofectamine 2000 reagent: siRNA complexes and cultured for 24 h. After transfection, cells were treated with LLL12B or DMSO only for 48 h, and then cell viability was measured by MTT assay.
Cells were seeded in 96-well plates at a density of 3,000 cells. After overnight attachment, cells were treated with different concentrations of LLL12B and/or cisplatin or DMSO alone. After 72 h treatment, 20 μL of MTT solution was added for 4 h of additional culture, and then 150 μL of DMF solubilization solution was added with shaking overnight in the dark. Absorbance was measured at 595 nm. Combination index (CI) was calculated using ComuSyn software. […]

A short description of series [11]: In vivo pharmacokinetics (PK) in mice dosed PO.
Series [12] deals with INF-γ stimulated STAT1 phosphorylation. In words: INF-γ induced P-STAT1 in DaoY cells (Western blot). Format: cell-based, human. As to conditions: 1 and 2.5 μM for 4 h, then INF-γ 50 ng/mL 30 min.
Source text: as §2, §3

Series [13] relates to STAT3 phosphorylation (Y705). The series can be described thus: Western blot of STAT3 phosphorylation in medulloblastoma cells. Format: cell-based, human.
Source text: as §2

Series [14] relates to Cyclin D1 and Survivin. In words: Western blot of STAT3 downstream targets in medulloblastoma cells. The class given is cell-based, human. The conditions noted are these: D283, D425, UW426, UW288 cells; 0.5 to 2.5 μM, 16 h.
Source text: as §2

Series [15] deals with STAT3 protein. More on the design: method as in PMID 32412740. As to conditions: intact MCF-7 breast cancer cells; cited from earlier work.
Where [16] appears, read: LLL12B 2.5 mg/kg oral daily and/or cisplatin 5 mg/kg ip every 4 days.

Take `CN(C)C(=O)Oc1cccc2c1C(=O)c1cccc(S(N)(=O)=O)c1C2=O` [LLL12B]: the tumorsphere formation result was “numbers and sizes of tumorspheres decreased” in series [1]; “numbers and sizes of tumorspheres decreased” in series [7]. For the same compound, the “caspase-3/7 activation (apoptosis)” value in series [2] is on record as “increased”. Also, the P-AKT entry is on record as “induced” in [3] (D283 cells, 0.5 to 2.5 μM); “some inhibition” in series [3] (UW288 cells, 0.5 to 2.5 μM); “bound back” in series [3] (UW426 cells, 2.5 μM); “reduced” in series [3] (UW426 cells, 0.5 and 1.0 μM). The “IL-6 induced phosphorylation of STAT3” value in series [4] is reported as “significantly inhibited”. For the same compound, the entries for the “suppression of tumor growth and tumor weights vs vehicle” value in [5] (2.5 mg/kg oral gavage once daily) and in series [5] (5 mg/kg oral gavage once daily) were ~ 40% and ~ 75%, respectively. Further, in [5] (2.5 or 5 mg/kg oral gavage once daily), the “body weight of mice” value is on record as “no significant impact”. The “P-STAT3(Y705) level in tumors” value in [5] (2.5 or 5 mg/kg oral, Western blot vs vehicle) is on record as “dose-dependently down-regulated”. In addition, the body weights entry in [5] (setting [16]) and in [9] (setting [16]) was “little effect” in each case. The “STAT3 phosphorylation in tumors” value in [5] and in series [9] was “reduced” in each case. The “survival of mice with tumors” value in [6] is given as “limited extension of the survival”. Moreover, the P-ERK result was “did not generally inhibit” in series [8] (D283 cells), “some inhibition” in series [8] (UW288 cells) and “induced” in [8] (UW426 cells). For the same compound, the cell viability result in series [10] was “could impede cell viability”. Besides, the “Cmax compared to LLL12” value in series [11] (LLL12B 8 mg/kg vs LLL12 20 mg/kg) is recorded as “more than doubled”. Besides, the AUC in series [11] (mouse, in vivo, 8 mg/kg) was 1.36 µM·h. Further, the peak level in series [11] (mouse, in vivo, 8 mg/kg) (Cmax) was 278 nM. Also, the bioavailability in series [11] (mouse, in vivo, 8 mg/kg, read-out: Bioavailability (F)) came out at 47.7%. In addition, the Tmax is roughly 8 h in series [11] (mouse, in vivo, po, 8 mg/kg, one time 8 mg/kg, read-out: oral Tmax) and 7.68 h in series [11] (mouse, in vivo, po, 8 mg/kg, read-out: Tmax). The “induction of phosphorylated STAT1 protein by INF-γ” value in series [12] is given as “without affecting”. Moreover, in series [13] (D283, D425, UW426, UW288 cells, 0.5 to 2.5 μM, 16 h), the “STAT3 phosphorylation (Y705)” value is on record as “dose-dependently suppressed”. Besides, the P-STAT3 levels result in [13] (UW426, UW288, D283 cells, 0.5, 1.0, 2.5 μM, 4 and 8 h) is given as “significantly reduced”. The “expression of Cyclin D1 and Survivin” value in series [14] is given as “downregulated”.
As for `NS(=O)(=O)c1cccc2c1C(=O)c1cccc(O)c1C2=O` [LLL12], in series [6] (vehicle 19 days), the “survival (average)” value stood at 24 days. In series [11] (20 mg/kg), the AUCall came out at 0.0407 µM·h, the “Bioavailability (F)” value is reported as 2.73%, the highest concentration (Cmax) was determined as 176 nM and the Tmax stood at 0.083 h. In addition, in series [11] (one time 20 mg/kg), the “oral Tmax” value is recorded as 5 min. For the same compound, in [15], the “binding to STAT3 protein in intact cells” value was “binds to STAT3 protein”.
As for `N.N.[Cl][Pt][Cl]` [cisplatin], the “caspase-3/7 activation (apoptosis)” value in [2] was “increased”. Further, the “STAT3 phosphorylation in tumors” value in series [5] and in [9] was “reduce or partially reduce” throughout.

The term AUC denotes the area under the concentration-time curve, a measure of exposure. As usually defined, the Cmax is the highest concentration seen after dosing. The bioavailability is the share of a dose that reaches the circulation, judged against a reference dose that is usually intravenous. The term Tmax denotes the time from dosing to the highest level.
